Measured values as given in US10738031B2, “N-[(heteroaryloxy)propanyl]heteroaryl carboxamides as antagonists of orexin subtype 1 receptor activity” (Boehringer Ingelheim International GmbH, priority 2016, dated 2020).

Experiments:
[1] = Assay C: Human MST t1/2 (stability in human liver microsomes); assay type: in vitro ADME; conditions: for half-life: human liver microsomes
human orexin 2 receptor = target: T1, human orexin 2 receptor (Homo sapiens, UniProt O43614); assay: Assay B: OX2R IP1 (in vitro OX2R potency); assay type: cell-based; conditions: Table 3; 0.5 nM Orexin A concentration
T1 construct: stably expressing the full-length human orexin 2 receptor; expressed in transfected cells; host or cells: CHO-K1 (CHO-K1/hOX2), co-expressing aequorin
T1 sequence (O43614 1-444): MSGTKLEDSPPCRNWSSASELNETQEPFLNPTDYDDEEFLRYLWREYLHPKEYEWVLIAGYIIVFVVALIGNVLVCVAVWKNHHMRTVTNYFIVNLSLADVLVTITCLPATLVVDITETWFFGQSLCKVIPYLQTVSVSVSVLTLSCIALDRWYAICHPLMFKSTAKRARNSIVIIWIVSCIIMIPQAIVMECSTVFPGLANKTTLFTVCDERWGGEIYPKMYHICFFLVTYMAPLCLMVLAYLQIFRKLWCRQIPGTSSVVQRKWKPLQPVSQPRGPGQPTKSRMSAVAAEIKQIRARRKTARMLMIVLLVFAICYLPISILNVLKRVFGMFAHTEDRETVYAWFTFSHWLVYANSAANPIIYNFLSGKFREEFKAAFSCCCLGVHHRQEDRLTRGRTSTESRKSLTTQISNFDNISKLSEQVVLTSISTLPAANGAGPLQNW
Description: Activation of the orexin receptors expressed in cell lines results in an increase in intracellular IP3 concentration. IP1, a downstream metabolite of IP3, accumulates in cells following receptor activation and is stable in the presence of LiCl. Using Homogeneous Time-Resolved Fluorescence technology with Lumi4-Tb cryptate (commercially available from Cisbio Bioassay.) and a suitable fluorescence plate reader. This functional response is detectable and quantifiable as described in Trinquet et al. Anal. […] Curr. Chem. Genomics 2009, 3, 22-32. This technique is used to characterize pharmacological modification of the orexin receptors. B. In Vitro Testing of OX2R Potency: OX2R IP1 IP1 measurements are performed in CHO-K1 cells stably expressing the full-length human orexin 2 receptor and the aequorin photoprotein. Cells are cultivated in Ham's nutrient mixture F12 medium with 10% fetal calf serum, in a 37° C., 95% humidity and 5% CO2 incubator. The CHO-K1/hOX2 cell mass is expanded to larger cell numbers. The cells are obtained as frozen cells in cryo-vials and stored until use at -150° C. The viability of the cells after thawing is >90%. In preparation for the assay, 24 hours before the assay, the cells are thawed at 37° C. and immediately diluted with cell culture medium. After centrifugation, the cell pellet is resuspended in medium and then distributed into the assay plates with a density of 5000 cells/25 μL per well. The plates are incubated for one hour at room temperature to reduce edge effects before they are incubated for 24 hours at 37° C./5% CO2. […] On the day of the assay, cells in the plate are washed twice with 60 μL assay buffer (20 μL buffer remained in the wells after washing), followed by adding 5 μL per well of compounds diluted in assay buffer. […] The assay plate is incubated for 60 minutes at 37° C. Then 5 μL per well of Anti-IP1-Cryptate Tb solution and 5 μL per well of IP1-d2 dilution are added to all well of the plate and the plate is incubated for a further 60 minutes light protected at room temperature. […] The ratio between the emission at 665 nm and 615 is calculated by the reader. […] AssayExplorer (Accelrys). In order to establish an agonist concentration independent parameter, Kb values are calculated using the following equation: […] Sci. 1993, 14(4), 110-112).

human Orexin 1 receptor = target: T2, human Orexin 1 receptor (Homo sapiens, UniProt O43613); assay: Assay A: OX1R IP1 (in vitro OX1R potency); assay type: cell-based; conditions: for Kb: Table 3
T2 construct: stably expressing the full-length human Orexin 1 receptor; expressed in transfected cells; host or cells: CHO-K1 (CHO-K1/hOX1), co-expressing aequorin
T2 sequence (O43613 1-425): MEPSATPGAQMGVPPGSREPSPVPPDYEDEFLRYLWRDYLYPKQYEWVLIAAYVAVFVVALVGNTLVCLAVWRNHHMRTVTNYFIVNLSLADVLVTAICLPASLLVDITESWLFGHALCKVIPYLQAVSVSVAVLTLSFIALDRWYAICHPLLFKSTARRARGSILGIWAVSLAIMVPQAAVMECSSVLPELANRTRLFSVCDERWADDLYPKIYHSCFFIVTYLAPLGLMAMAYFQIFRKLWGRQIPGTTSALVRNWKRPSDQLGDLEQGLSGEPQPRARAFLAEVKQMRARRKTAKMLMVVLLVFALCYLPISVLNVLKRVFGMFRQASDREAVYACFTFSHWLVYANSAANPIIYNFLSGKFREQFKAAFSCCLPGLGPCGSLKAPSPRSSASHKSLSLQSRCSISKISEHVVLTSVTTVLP

| Structure (SMILES) | half-life [1] | Kb (human orexin 2 receptor) | OX2R Kb/OX1R Kb (human Orexin 1 receptor) | Kb (human Orexin 1 receptor; Orexin A concentration 0.5 nM) | Kb (human Orexin 1 receptor; Orexin A concentration 50 nM) | stability in human liver microsomes (in words) ([1]; compared with closest prior art compounds in WO2016/034882) |
| --- | --- | --- | --- | --- | --- | --- |
| CCN(C(=O)c1nc(C)ccc1-n1nccn1)[C@@H](C)COc1ncc(C(F)(F)F)cc1F [Example 12] | 13 min | 206 nM | 268 | 0.77 nM | – | – |
| CCN(C(=O)c1cc(F)cnc1-n1nccn1)[C@@H](C)COc1ncc(C(F)(F)F)cc1F [Example 21] | > 130 min | 2700 nM | 817 | 3.3 nM | – | – |
| CCN(C(=O)c1cnccc1-n1cccn1)[C@@H](C)COc1ccc(C(F)(F)F)cn1 [Example 69] | 13 min | 305 nM | 139 | 2.2 nM | – | – |
| CCN(C(=O)c1nc(C)ccc1-n1nccn1)[C@@H](C)COc1cnc(C(F)(F)F)cn1 [Example 10] | > 130 min | 749 nM | 300 | 2.5 nM | – | – |
| CCN(C(=O)c1ncccc1-c1ccccc1)[C@@H](C)COc1ncc(C(F)(F)F)cn1 [Example 15] | 96 min | 705 nM | 157 | 4.5 nM | – | – |
| CCN(C(=O)c1ccc(OC)nc1-c1ccn(C)n1)[C@@H](C)COc1ccc(C(F)(F)F)cn1 [Example 32] | 12 min | 106 nM | 707 | – | 0.15 nM | – |
| CCN(C(=O)c1cc(F)cnc1-n1nccn1)[C@@H](C)COc1ccc(C(F)(F)F)cn1 [Example 6] | > 130 min | 844 nM | – | 1.2 nM | 1.5 nM | – |
| CCN(C(=O)c1cccnc1-n1nccn1)[C@@H](C)COc1ccc(C(F)(F)F)cn1 [Example 61] | > 130 min | 678 nM | 294 | 2.31 nM | – | – |
| CCN(C(=O)c1cc(F)cnc1-c1ncccn1)[C@@H](C)COc1cnc(C(F)(F)F)cn1 [Example 45] | > 130 min | 6650 nM | 332 | 20 nM | – | – |
| CCN(C(=O)c1cc(OC)cnc1-n1nccn1)[C@@H](C)COc1ncc(C(F)(F)F)cc1F [Example 54] | > 130 min | 578 nM | 649 | 0.89 nM | – | – |
| CCN(C(=O)c1ccncc1-n1cccn1)[C@@H](C)COc1ccc(C(F)(F)F)cn1 [Example 40] | 10 min | 1560 nM | 120 | 13 nM | – | – |
| CCN(C(=O)c1cccnc1-n1nccn1)[C@@H](C)COc1ncc(C(F)(F)F)cc1F [Example 44] | > 130 min | 1210 nM | 289 | 4.2 nM | – | – |
| CCN(C(=O)c1nccc(C(F)(F)F)c1-c1ccn(C)n1)[C@@H](C)COc1ccc(C(F)(F)F)cn1 [Example 50] | 23 min | 26 nM | 236 | – | 0.11 nM | – |
| CCN(C(=O)c1cc(F)cnc1-c1ncccn1)[C@@H](C)COc1ncc(C(F)(F)F)cc1F [Example 35] | > 130 min | 3250 nM | 706 | 4.6 nM | – | – |
| CCN(C(=O)c1ncc(C)cc1-n1cccn1)[C@@H](C)COc1ccc(C(F)(F)F)cn1 [Example 64] | 20 min | 275 nM | 688 | – | 0.4 nM | – |
| CCN(C(=O)c1ccc(C(F)(F)F)nc1-c1ccn(C)n1)[C@@H](C)COc1ccc(C(F)(F)F)cn1 [Example 28] | 11 min | 705 nM | 353 | 2 nM | – | – |
| CCN(C(=O)c1ccc(C)nc1-n1nccn1)[C@@H](C)COc1ncc(C(F)(F)F)cn1 [Example 30] | > 130 min | 3590 nM | 641 | 5.6 nM | – | – |
| CCN(C(=O)c1cc(OC)ncc1-c1ccn(C)n1)[C@@H](C)COc1ccc(C(F)(F)F)cn1 [Example 38] | 12 min | 323 nM | 135 | 2.4 nM | – | – |
| CCN(C(=O)c1cc(F)cnc1-c1nnc(C)o1)[C@@H](C)COc1ccc(C(F)(F)F)cn1 [Example 59] | > 130 min | 6640 nM | 214 | 31 nM | – | – |
| CCN(C(=O)c1ncc(C)cc1-c1ccn(C)n1)[C@@H](C)COc1ccc(C(F)(F)F)cn1 [Example 20] | 24 min | 415 nM | 1660 | – | 0.25 nM | – |
| CCN(C(=O)c1nc(C)ccc1-c1ncccn1)[C@@H](C)COc1cnc(C(F)(F)F)cn1 [Example 53] | > 130 min | 337 nM | 105 | 3.2 nM | – | markedly improved stability in human liver microsomes |
| CCN(C(=O)c1ccc(C)nc1-n1nccn1)[C@@H](C)COc1cnc(C(F)(F)F)cn1 [Example 33] | > 130 min | 3280 nM | 421 | 7.8 nM | – | – |
| CCN(C(=O)c1ncccc1-c1ccn(C)n1)[C@@H](C)COc1ccc(C(F)(F)F)cn1 [Example 34] | 81 min | 285 nM | 190 | 1.5 nM | – | – |
| CCN(C(=O)c1ccc(C)nc1-n1nccn1)[C@@H](C)COc1ncc(C(F)(F)F)cc1F [Example 60] | > 130 min | 882 nM | – | 0.67 nM | 0.66 nM | – |
| CCN(C(=O)c1cnccc1-n1nccn1)[C@@H](C)COc1ccc(C(F)(F)F)cn1 [Example 36] | 15 min | 240 nM | 240 | 1 nM | – | – |
| CCN(C(=O)c1ncccc1-n1nccn1)[C@@H](C)COc1ccc(C(F)(F)F)cn1 [Example 26] | > 130 min | 267 nM | 281 | 0.95 nM | – | – |
| CCN(C(=O)c1cc(C(F)(F)F)cnc1-n1cccn1)[C@@H](C)COc1ccc(C(F)(F)F)cn1 [Example 3] | 83 min | 212 nM | 177 | 1.2 nM | 1.2 nM | – |
| CCN(C(=O)c1cc(OC)cnc1-n1nccn1)[C@@H](C)COc1ccc(C(F)(F)F)cn1 [Example 56] | > 130 min | 260 nM | – | 0.5 nM | 0.49 nM | – |
| CCN(C(=O)c1ccc(C)nc1-n1nccn1)[C@@H](C)COc1ccc(C(F)(F)F)cn1 [Example 17] | 59 min | 356 nM | 1618 | – | 0.22 nM | – |
| CCN(C(=O)c1ccncc1-c1ccn(C)n1)[C@@H](C)COc1ccc(C(F)(F)F)cn1 [Example 29] | 11 min | 1600 nM | 184 | 8.7 nM | – | – |
